The text below walks through data of patent US20120245078A1, “MEANS AND METHODS FOR TREATING ISCHEMIC CONDITIONS” (priority 2009, published 2012).

Assay [1] has as its system claudin-5 protein. In words: Western blot and densitometry, claudin-5 protein in cEND cells. It is filed as cell-based, mouse. The note with it: GR-K426A-transfected cEND cells, O2/glucose deprivation, presence of dexamethasone (K426A O2/glu depr+dex). On the procedure: (C)-(D) The influence of O2/glucose-deprivation on the tight junction proteins occludin and claudin-5 could be shown by Western Blot: for this, cells were seeded on plastic cell culture flasks coated with collagen IV, treated as indicated and subjected to SDS-gel electrophoresis and Western blotting. A four-hour exposure to O2/glucose-deprivation caused a significant (P<0.05) decrease in occludin protein to 82±3% as compared to the untreated control. […]. Comparably, O2/glucose-deprivation caused a significant (P<0.001) decrease in claudin-5 protein to 61±4% as compared to the untreated control. […].
On the technique in general: In western blotting, separated proteins are transferred to a membrane and probed.

The test system of assay [2] is occludin protein. As to the kind of experiment: Western blot and densitometry, occludin protein in cEND cells. In kind it is cell-based, mouse. The note with it: for occludin protein, of control: GR-K426A-transfected cEND cells, after O2/glucose deprivation. On the procedure:
(C)-(D) The influence of O2/glucose-deprivation on the tight junction proteins occludin and claudin-5 could be shown by Western Blot: for this, cells were seeded on plastic cell culture flasks coated with collagen IV, treated as indicated and subjected to SDS-gel electrophoresis and Western blotting. A four-hour exposure to O2/glucose-deprivation caused a significant (P<0.05) decrease in occludin protein to 82±3% as compared to the untreated control. […]. Comparably, O2/glucose-deprivation caused a significant (P<0.001) decrease in claudin-5 protein to 61±4% as compared to the untreated control. […]. (C) Effects of proteasomal inhibition on occludin protein levels were examined by western blot analysis and densitometric analysis.

In assay [3] the test system is GR protein. In words: Western blot and densitometry, GR protein levels in cEND cells. The note with it: normoxia, 100 nM dexamethasone 24 h (normox+dex). It is filed as cell-based, mouse. On the procedure:
(A) GR protein levels after O2/glucose-deprivation.
(§1) Electrophoresis and immunoblotting, quantitative real-time RT-PCR, transendothelial electrical resistance measurements, transfection and luciferase assay were performed following standard procedures.

In assay [4] the test system is traumatic brain injury (CCI). As to the kind of experiment: Controlled cortical impact (CCI) traumatic brain injury model. In kind it is in vivo, mouse. The note with it: mice, 24 h after CCI; given 30 min after CCI; bortezomib 0.2 mg/kg, dexamethasone 10 mg/kg; scale 0 to 10. On the procedure: As is known in the art, the neurological severity score is a measure of neurological impairment and is quantified on a scale from 0 (no impairment) to 10 (maximum impairment). When determining the neurological severity score, primarily the motoric activity is assessed (walking on a bar, false steps, search or foraging, respectively, behaviour and the like).

Assay [5] has as its system focal cerebral ischemia (tMCAO). The note with it: mice, 24 h after 60 min tMCAO; same doses; untreated control 48.3±16.7 or 56.6±10.0. On the procedure: The intraluminal suture was left in situ for 60 minutes. Then animals were re-anesthetized and the occluding monofilament was withdrawn to allow reperfusion. […] Control mice (n=10) received 0.9% NaCl solution.
Control mice (n=10) received 0.9% NaCl solution.

In assay [6] the test system is cEND monolayers. As to the kind of experiment: Transendothelial electrical resistance (TER) of cEND monolayers, normoxia or O2/glucose deprivation. It is filed as cell-based, mouse. The note with it: GR-K426A-transfected cEND cells, after O2/glucose deprivation, without dexamethasone (K426A O2/glu depr). On the procedure: Growth medium (10% FCS) was changed after 5 days in culture to differentiation medium ([…], ±additions) and analysis of the TER was performed after O2/glucose-deprivation as indicated. […] Hek293 cells were maintained in DMEM, 10% FCS. […] We performed cell viability assays following standard procedures.
as §1

Assay [7] relates to VE-cadherin. As to the kind of experiment: Real time RT-PCR, VE-cadherin gene expression in cEND cells. It is filed as cell-based, mouse. The note with it: introduction of GR-K426A. On the procedure: (§2) Normox control (black bars), normox+dex (white bars), O2/glu depr (light grey bars), O2/glu depr+dex (dark grey bars).
as §1
(§3) At first, expression levels of genes encoding the tight junction proteins occludin, claudins-3, -5, -12 and the adherens junction protein, VE-cadherin, were assessed by real time RT-PCR (FIG. 2B).
In general terms: In qPCR the cycle at which signal appears reflects the starting amount.

In assay [8] the test system is claudin-5. In words: Real time RT-PCR, claudin-5 gene expression in cEND cells. It is filed as cell-based, mouse. The note with it: introduction of GR-K426A. On the procedure:
as §2, §1, §3

`C[C@@H]1C[C@H]2[C@@H]3CCC4=CC(=O)C=C[C@]4(C)[C@@]3(F)[C@@H](O)C[C@]2(C)[C@@]1(O)C(=O)CO` [dexamethasone]: the claudin-5 protein level in assay [1] was found to be 44±11%. The “occludin protein, of control” value in assay [2] (dexamethasone (K426A O2/glu depr+dex)) turned out to be 122±5%. In assay [2] (normoxia, dexamethasone), the “occludin protein content, of control” value turned out to be 120±7%. Moreover, in assay [3], the “GR protein, of untreated cells” value was determined as 66±2%.

Turning to `CC(C)C[C@@H](NC(=O)[C@@H](Cc1ccccc1)NC(=O)c1cnccn1)B(O)O` [bortezomib, [(1S)-3-methyl-1-[[(2R)-3-phenyl-2-(pyrazine-2-carbonylamino)propanoyl]amino]butyl]boronic acid], the neurological severity score entry in assay [4] is “does not lead to any statistically significant improvement”. Further, in assay [5], the “volume of Evan's blue extravasation (edema volume)” value was “no influence”.

B1: GR-K426A: mutant murine glucocorticoid receptor, point mutation at lysine-426, resistant to proteasomal degradation, transfected into cEND cells (SEQ ID NOs: 3 and 4) (protein)
chain: MDSKESLAPPGRDEVPSSLLGRGRGSVMDLYKTLRGGATVKVSASSPSVAAASQADSKQQRILLDFSKGSASNAQQQQQQQQPQPDLSKAVSLSMGLYMGETETKVMGNDLGYPQQGQLGLSSGETDFRLLEESIANLNRSTSRPENPKSSTPAAGCATPTEKEFPQTHSDPSSEQQNRKSQPGTNGGSVKLYTTDQSTFDILQDLEFSAGSPGKETNESPWRSDLLIDENLLSPLAGEDDPFLLEGDVNEDCKPLILPDTKPKIQDTGDTILSSPSSVALPQVKTEKDDFIELCTPGVIKQEKLGPVYCQASFSGTNIIGNKMSAISVHGVSTSGGQMYHYDMNTASLSQQQDQKPVFNVIPPIPVGSENWNRCQGSGEDNLTSLGAMNFAGRSVFSNGYSSPGMRPDVSSPPSSSSTATGPPPALCLVCSDEASVCHYGVLTCGSCKVFFKRAVEGQHNYLCAGRNDCIIDKIRRKNCPACRYRKCLQAGMNLEARKTKKKIKGIQQATAGVSQDTSENANKTIVPAALPQLTPTLVSLLEVIEPEVLYAGYDSSVPDSAWRIMTTLNMLGGRQVIAAVKWAKAIPGFRNLHLDDQMTLLQYSWMFLMAFALGWRSYRQASGNLLCFAPDLIINEQRMTLPCMYDQCKHMLFISTELQRLQVSYEEYLCMKTLLLLSSVPKEGLKSQELFDEIRMTYIKELGKAIVKREGNSSQNWQRFYQLTKLLDSMHDVVENLLSYCFQTFLDKSMSIEFPEMLAEIITNQIPKYSNGNIKKLLFHQK
modifications: expressed in transfected cEND cells; mus musculus
Regarding B1, the TER in assay [6] was 239+58 Ωcm^2. Moreover, the “occludin protein, of control” value in assay [2] (without dexamethasone (K426A O2/glu depr)) is on record as 58±7%. The “VE-cadherin gene expression level” value in assay [7] is given as “not influenced”. Besides, in assay [8], the “claudin-5 gene expression level” value was “not influenced”.
